Experimental data reported in paper PMC3127977, “No relevant cardiac, pharmacokinetic or safety interactions between roflumilast and inhaled formoterol in healthy subjects: an open-label, randomised, actively controlled study” (BMC Clinical Pharmacology, 2011).

Assays:
[1] = Steady-state plasma pharmacokinetics (HPLC-MS/MS) in healthy men; oral roflumilast 500 μg once daily, inhaled formoterol 24 μg twice daily; conditions: for Cmax: Cmax (formoterol)
Protocol: (§1) For Regimen A, subjects received 500 μg oral roflumilast once daily (daily dose: one tablet of roflumilast 500 μg) from the morning of Day 2 to the morning of Day 18. […] For Regimen B, subjects received 24 μg formoterol for oral inhalation delivered by a DPI device (Foradil® P) twice daily, once in the morning and once in the evening from the morning of Day 2 to the evening of Day 18.
Pre-dose blood samples for determination of trough levels were taken on Days 9 and 10 for Regimen A (morning only), and on Days 6 and 7 (morning and evening) for Regimen B. Blood samples (4.5 mL) were collected in heparinised tubes and plasma was obtained by centrifugation at 1550 g for 15 minutes. Plasma samples were stored at -20°C or below for roflumilast, and at -70°C for formoterol. Plasma concentrations of roflumilast and roflumilast N-oxide were determined using high-performance liquid chromatography coupled with tandem mass spectrometry (HPLC-MS/MS). […] Roflumilast and roflumilast N-oxide standard curves were valid up to 20 ng/mL and 40 ng/mL, respectively. Determination of roflumilast and roflumilast N-oxide was performed at Altana Pharma AG, Konstanz, Germany (Nycomed GmbH). Plasma concentrations of formoterol were determined using HPLC-MS/MS. The LLOQ in plasma was 0.4 pg/mL using a sample volume of 1.0 mL. […] Determination of formoterol was performed at pharm-analyt Labor GmbH, Baden, Austria, under the supervision of Altana Pharma AG(Nycomed GmbH).
For roflumilast, roflumilast N-oxide and formoterol, the maximum plasma concentration (Cmax) was derived directly from the plasma concentrations. The AUC from time zero to the time of the last quantifiable concentration, which corresponded to the dosing interval of each analyte (AUC0-τ), was estimated using the linear trapezoidal method. Apparent clearance at steady state (CL/F; calculated by dose/AUCτ) was reported for roflumilast only. […] The calculation of tPDE4i was based on the equation described in Lahu et al..

healthy subjects [2] = assay: Transthoracic impedance cardiography (ZCG) and systolic time intervals in healthy men; oral roflumilast 500 μg once daily, inhaled formoterol 24 μg twice daily; conditions: Regimen B
Protocol: as §1
Cardiovascular effects were evaluated non-invasively by means of ECGs (cardiac rhythm, intra-cardiac conduction and ventricular repolarisation), oscillometric blood pressure and transthoracic impedance cardiography (ZCG; systolic time intervals, contractility indices and estimates of stroke volume and cardiac output). Cardiovascular assessments (oscillometric blood pressure, pulse rate, 12-lead ECG, and three-lead ZCG) were recorded before dosing and at 10, 20, 40 and 60 minutes, and at 2, 3, 4, 5, 6, 7 and 8 hours after morning dosing. […] All cardiovascular measurements were carried out after the subjects had been recumbent for at least 10 minutes; they generally stayed in bed from 1 hour before until 8 hours after morning dosing.
Systolic time intervals (STIs) and ZCG estimates of the systolic cardiac pump performance were derived from the simultaneous registration of a one-lead ECG, a phonocardiogram (PCG), and the rate of change of the transthoracic impedance (dZ/dt) to an AC current applied through the thoracic cage (CARDIODYNAGRAPH; Diefenbach GmbH, Wiesbaden, Germany). Tracings were captured and stored digitally during the study and subsequently analysed after the study by displaying the analogue ECG, PCG and ZCG signals on a computer screen. The relevant signal amplitudes and time intervals were delineated manually by operator-steered cursors; measurements were made for at least 10 artefact-free consecutive cardiac cycles. From these tracings, the following variables were derived by direct measurement: RR interval (ms), total electromechanic systole (QS2 [ms]), ventricular ejection time (VET [ms]), baseline transthoracic impedance (Z0 [Ω]), and maximum negative velocity of transthoracic impedance changes during the cardiac cycle (dZ/dtmax [Ω/s]). These variables were analysed for the 10 cycles and their means were used in the calculations of the following variables: heart rate (HR [bpm]), pre-ejection period (PEP [ms] = QS2 - VET), HR-corrected STIs (STIc and STIi according to Weissler et al.), ZCG estimates of stroke volume (SV [mL] according to Kubicek's equation [37] using the equation of Geddes and Sadler for the specific resistance of blood), cardiac output (CO [mL/min]), and total peripheral resistance (TPR [dyn.s.cm^-5]). For the latter variable, the mean blood pressure (MBP [mmHg]) was used as calculated according to Wezler and Böger from the systolic blood pressure (mmHg) and the diastolic blood pressure (mmHg).
ZCG analysis was carried out by a single analyst who was blinded with regard to subject, study regimen, profiling day within regimen, and time during the day.

healthy subjects [3] = assay: Digital 12-lead electrocardiography (HR, QT, QTc); assay type: in vivo, human
Protocol: Digital 12-lead ECGs were recorded immediately after each ZCG recording. Tracings were analysed off-study by regimen-blinded qualified analysts, using previously reported methodology. For each time point, three cycles were measured with regard to the RR, PQ and QT-intervals [ms]. The means of the three measurements were used for the calculation of HR and HR-corrected QTc intervals, according to Bazett's equation (QTcB = QT/RR^1/2) and Fridericia's equation (QTcF = QT/RR^1/3).

healthy subjects [4] = assay: Adverse event monitoring; assay type: in vivo, human
Text: Blood and urine samples for conventional clinical laboratory safety tests were obtained at the screening visit, in the morning of each main profiling day, and on Day 19. Adverse events (AEs) were monitored throughout the study.

[5] = orally co-administered formoterol, Phase I study; ref unpublished data; Nycomed GmbH, 2002; cited from earlier work
[6] = test system: human parenchymal and bronchial explants; conditions: in vitro; cited from earlier work
[7] = Serum glucose concentration on profiling days; conditions: Regimen B, throughout Day 8 compared with Day 1
Text: (§2) During the main profiling days, blood was sampled at each ZCG time point for the determination of serum glucose and potassium concentrations.

[8] = Serum potassium concentration on profiling days; conditions: Regimen B, Day 8
Text: as §2

## COc1ccc(CC(C)NCC(O)c2ccc(O)c(NC=O)c2)cc1 (stereo not drawn) [Formoterol]
[1]; formoterol added to roflumilast, or roflumilast added to formoterol
  changes in steady-state pharmacokinetics when the other drug was added: no changes
[1]; male, human, in vivo, 24 μg, steady state, Regimen B Day 8 (formoterol alone), geometric mean (68% range)
  Cmax: 16.7 ng/mL
[1]; male, human, in vivo, AUCτ (formoterol), steady state, Regimen A Day 18 (roflumilast plus formoterol), geometric mean (68% range)
  AUC: 93.2 ng·h/mL
[1]; male, human, in vivo, steady state, Regimen A Day 18 (roflumilast plus formoterol), geometric mean (68% range)
  Cmax: 18.7 ng/mL
[1]; male, human, in vivo, steady state, Regimen B Day 18 (formoterol plus roflumilast), geometric mean (68% range)
  Cmax: 17.2 ng/mL
[1]; steady state, Regimen A Day 18 (roflumilast plus formoterol), geometric mean (68% range)
  Ctrough (formoterol): 4.23 (2.43-7.38) μg/L
[1]; steady state, Regimen B Day 8 (formoterol alone), geometric mean (68% range)
  Ctrough (formoterol): 4.12 (3.05-5.57) μg/L
[1]; steady state, Regimen B Day 18 (formoterol plus roflumilast), geometric mean (68% range)
  Ctrough (formoterol): 3.94 (3.13-4.96) μg/L
Healthy subjects [2]; Day 8 (F)
  CO, Day 1-matched post-dose maximum dmax (δ), median: 2.9 L/min
  CO, Day 1-matched post-dose minimum dmin (δ), median: -0.6 L/min
  CO, untransformed post-dose maximum dmax (U), median: 11.8 L/min
  CO, untransformed post-dose minimum dmin (U), median: 8.2 L/min
  CO, untransformed pre-dose morning value, median: 9.7 L/min
  HR, Day 1-matched post-dose maximum dmax (δ), median: 16 bpm
  HR, Day 1-matched post-dose minimum dmin (δ), median: -2 bpm
  HR, untransformed post-dose maximum dmax (U), median: 72 bpm
  HR, untransformed post-dose minimum dmin (U), median: 62 bpm
  HR, untransformed pre-dose morning value, median: 66 bpm
  PEP, Day 1-matched post-dose maximum dmax (δ), median: 25 ms
  PEP, Day 1-matched post-dose minimum dmin (δ), median: -26 ms
  PEP, untransformed post-dose maximum dmax (U), median: 117 ms
  PEP, untransformed post-dose minimum dmin (U), median: 84 ms
  PEP, untransformed pre-dose morning value, median: 97 ms
  QS2, Day 1-matched post-dose maximum dmax (δ), median: 13 ms
  QS2, Day 1-matched post-dose minimum dmin (δ), median: -47 ms
  QS2, untransformed post-dose maximum dmax (U), median: 440 ms
  QS2, untransformed post-dose minimum dmin (U), median: 408 ms
  QS2, untransformed pre-dose morning value, median: 431 ms
  TPR, Day 1-matched post-dose maximum dmax (δ), median: 61 dyn.s.cm^-5
  TPR, Day 1-matched post-dose minimum dmin (δ), median: -221 dyn.s.cm^-5
  TPR, untransformed post-dose maximum dmax (U), median: 882 dyn.s.cm^-5
  TPR, untransformed post-dose minimum dmin (U), median: 561 dyn.s.cm^-5
  TPR, untransformed pre-dose morning value, median: 668 dyn.s.cm^-5
  dZ/dt, Day 1-matched post-dose maximum dmax (δ), median: 0.32 Ω/s
  dZ/dt, Day 1-matched post-dose minimum dmin (δ), median: -0.29 Ω/s
  dZ/dt, untransformed post-dose maximum dmax (U), median: 2.10 Ω/s
  dZ/dt, untransformed post-dose minimum dmin (U), median: 1.64 Ω/s
  dZ/dt, untransformed pre-dose morning value, median: 1.94 Ω/s
Healthy subjects [2]; Day 8-Day 1
  CO, dmax (U), point estimate (95% CI) of difference between days: 1.7 (0.6 to 2.6) L/min
  CO, dmin (U), point estimate (95% CI) of difference between days: 0.5 (-0.5 to 1.4) L/min
  CO, untransformed pre-dose morning value, point estimate (95% CI) of difference between days: 0.7 (-0.9 to 2.0) L/min
  HR, dmax (U), point estimate (95% CI) of difference between days: 9 (5 to 11) bpm
  HR, dmin (U), point estimate (95% CI) of difference between days: 7 (3 to 10) bpm
  HR, untransformed pre-dose morning value, point estimate (95% CI) of difference between days: 5 (2 to 9) bpm
  PEP, dmax (U), point estimate (95% CI) of difference between days: -4 (-14 to 2) ms
  PEP, dmin (U), point estimate (95% CI) of difference between days: 0 (-7 to 6) ms
  PEP, untransformed pre-dose morning value, point estimate (95% CI) of difference between days: -7 (-22 to 7) ms
  QS2, dmax (U), point estimate (95% CI) of difference between days: -14 (-27 to 4) ms
  QS2, dmin (U), point estimate (95% CI) of difference between days: -13 (-22 to -3) ms
  QS2, untransformed pre-dose morning value, point estimate (95% CI) of difference between days: -4 (-18 to 9) ms
  TPR, dmax (U), point estimate (95% CI) of difference between days: -49 (-160 to 80) dyn.s.cm^-5
  TPR, dmin (U), point estimate (95% CI) of difference between days: -96 (-188 to -24) dyn.s.cm^-5
  TPR, untransformed pre-dose morning value, point estimate (95% CI) of difference between days: -18 (-198 to 70) dyn.s.cm^-5
  dZ/dt, dmax (U), point estimate (95% CI) of difference between days: 0.01 (-0.15 to 0.21) Ω/s
  dZ/dt, dmin (U), point estimate (95% CI) of difference between days: 0.03 (-0.13 to 0.17) Ω/s
  dZ/dt, untransformed pre-dose morning value, point estimate (95% CI) of difference between days: 0.06 (-0.07 to 0.19) Ω/s
Healthy subjects [3]; 12-lead ECG
  HR (ECG): slight increase
  QTc values, uncorrected or corrected using Bazett's or Fridericia's formula: no clinically relevant changes
  duration of the QT interval: decrease
Healthy subjects [3]; all subjects, all regimens
  QT/QTc intervals: below 450 ms
Healthy subjects [4]; Regimen B, Day 2 to Day 8
  number of AEs: no AEs were reported
Healthy subjects [4]; administered alone (Regimens A and B respectively)
  tremor: not observed
[5]
  drug-drug interaction with roflumilast: no apparent drug-drug interaction
[6]
  inhibitory effect of roflumilast on cytokine and tumour necrosis factor-α production: increased
[7]
  post-dose serum glucose: slight post-dose increase
[8]
  pre-dose serum potassium concentration: 4.38 mmol/L
